The source of these data is patent publication US6017933A, “Mannich bases of conjugated styryl ketones” (University of Saskatchewan Technologies Inc., priority 1999, dated 2000).

One assay concerns P388 cells. The experiment in a line: Cytotoxicity, murine P388 leukemic cells (P388 D1). The note with it: for IC50: read-out: P388 cells IC50.
The subject of the next assay is L1210 cells. The assay is described as follows: Cytotoxicity, murine L1210 leukemic cells. The assay is classed as cell-based. To be noted: Mus musculus, mean.
A further assay concerns CEM cells. The experiment in a line: Cytotoxicity, CEM human T-lymphocytes. To be noted: for IC50: Homo sapiens, CCRF-CEM, read-out: CEM cells IC50; for TIL1210 (CEM cells): IC50 T-lymphocytes (CEM)/IC50 L1210; for TIP388 (CEM cells): IC50 T-lymphocytes (CEM)/IC50 P388.
The subject of another assay is Molt 4/C8 cells. The assay is described as follows: Cytotoxicity, Molt 4/C8 human T-lymphocytes. The note with it: for TIL1210 (Molt 4/C8 cells): IC50 T-lymphocytes (Molt 4/C8)/IC50 L1210; for TIP388 (Molt 4/C8 cells): IC50 T-lymphocytes (Molt 4/C8)/IC50 P388; for IC50: read-out: Molt 4/C8 cells IC50.
Another assay deals with human tumors. The experiment in a line: Cytotoxicity, human tumor cell line panel (approximately 55 lines). To be noted: for IC50: read-out: human tumors IC50, mean graph midpoint, approximately 55 cell lines, hydrobromide salts used for 4a, 11a-e; for Selective toxicity towards leukemia: human tumor screen.

Turning to `CCN(CC)CCC(=O)/C=C/c1ccc(Cl)cc1` [Compound 1b], in the assay with P388 cells, the “potency relative to melphalan, P388” value is on record as “more than half the potency of melphalan” and the IC50 is 0.3 µM. The IC50 in the assay with L1210 cells amounted to 41 µM. For the same compound, in the assay on CEM cells, the IC50 was 53.3 µM, the “TIL1210 (CEM cells)” value is given as 1.30 and the “TIP388 (CEM cells)” value stood at 177.6. Further, in the assay on Molt 4/C8 cells, the “TIL1210 (Molt 4/C8 cells)” value is on record as 0.98, the “TIP388 (Molt 4/C8 cells)” value is recorded as 134.6 and the IC50 was found to be 40.4 µM.
For the compound `CCN(CC)CCC(=O)/C=C/c1ccc(C)cc1` [Compound 1d], the IC50 in the assay on P388 cells was determined as 1.1 µM. In the assay on L1210 cells, this compound returned an IC50 of 52.9 µM. Further, in the assay with CEM cells, the IC50 is 48.6 µM, the “TIL1210 (CEM cells)” value was found to be 0.92 and the “TIP388 (CEM cells)” value is given as 44.19. Also, in the assay on Molt 4/C8 cells, the “TIL1210 (Molt 4/C8 cells)” value amounted to 1.05, the “TIP388 (Molt 4/C8 cells)” value was 50.65 and the IC50 came out at 55.7 µM.
Consider `CCN(CC)CCC(=O)/C=C/c1ccc(OC)cc1` [Compound 1e], for which, in the assay on P388 cells, the IC50 worked out at 0.67 µM. The compound further gave an IC50 with L1210 cells of 44.3 µM. Moreover, in the assay on CEM cells, the IC50 came to 48.6 µM, the “TIL1210 (CEM cells)” value was 1.10 and the “TIP388 (CEM cells)” value was 72.55. Besides, in the assay on Molt 4/C8 cells, the “TIL1210 (Molt 4/C8 cells)” value is 1.17, the “TIP388 (Molt 4/C8 cells)” value is 77.69 and the IC50 came out at 52.1 µM.
Turning to `CCN(CC)CCC(=O)c1ccc(Cl)cc1` [Compound 4b], the IC50 in the assay with P388 cells was determined as 3.2 µM. Also, the IC50 in the assay on L1210 cells was determined as 36.9 µM. In the assay with CEM cells, the IC50 turned out to be 40 µM, the “TIL1210 (CEM cells)” value came to 1.08 and the “TIP388 (CEM cells)” value is listed as 12.50. For the same compound, in the assay on Molt 4/C8 cells, the “TIL1210 (Molt 4/C8 cells)” value worked out at 0.62, the “TIP388 (Molt 4/C8 cells)” value is reported as 7.13 and the IC50 was determined as 22.8 µM.
In the case of `CCN(CC)CCC(=O)c1ccc(Cl)c(Cl)c1` [Compound 4c], the “potency relative to melphalan, P388” value in the assay on P388 cells is “more than half the potency of melphalan”.
Turning to `O=C(CCN1CCN(CCC(=O)c2ccccc2)CC1)c1ccccc1` [Compound 8b], the IC50 with P388 cells is 2.84 µM. The compound also displayed an IC50 in the assay on L1210 cells of 9.71 µM. Besides, in the assay on CEM cells, the IC50 stood at 16 µM, the “TIL1210 (CEM cells)” value came out at 1.65 and the “TIP388 (CEM cells)” value came out at 5.64. In the assay with Molt 4/C8 cells, the “TIL1210 (Molt 4/C8 cells)” value was 2.69, the “TIP388 (Molt 4/C8 cells)” value is reported as 9.20 and the IC50 worked out at 26.1 µM.
On to `CCN1CCC(O)(/C=C/c2ccc(Cl)c(Cl)c2)C(C(=O)/C=C/c2ccc(Cl)c(Cl)c2)C1` (centres unmarked) [Compound 9c], for which, in the assay with P388 cells, the “potency relative to melphalan, P388” value is given as “more than half the potency of melphalan” and the IC50 is 0.4 µM. Moreover, in the assay with human tumors, the IC50 amounted to 0.38 µM.
Take `CCN1CCC(O)(c2ccc(Cl)c(Cl)c2)C(C(=O)c2ccc(Cl)c(Cl)c2)C1` (centres unmarked) [Compound 11c]: the IC50 turned out to be 3.11 µM in the assay with P388 cells and 16.6 µM in the assay on human tumors.
As for `CC[N+]1(C)CCC(O)(c2ccccc2)C(C(=O)c2ccccc2)C1` (centres unmarked) [Compound 12a], the figures for the IC50 with P388 cells and in the assay on human tumors were 1.3 µM and 12.9 µM, respectively. Moreover, the “Selective toxicity towards leukemia” value with human tumors is “Selective toxicity towards leukemia was observed”.
On the same counts, the results for `CC[N+]1(C)CCC(O)(c2ccc(Cl)cc2)C(C(=O)c2ccc(Cl)cc2)C1` (centres unmarked) [Compound 12b] are 1.5 µM, 12.9 µM and “Selective toxicity towards leukemia was observed”.
As for `CC[N+]1(C)CCC(O)(c2ccc(C)cc2)C(C(=O)c2ccc(C)cc2)C1` (centres unmarked) [Compound 12d], the IC50 was determined as 2.1 µM in the assay with P388 cells and 50.1 µM with human tumors. Further, the “activity relative to melphalan, human tumors” value with human tumors is reported as “five times more potent than melphalan”.
As for `CC[N+]1(C)CCC(O)(c2ccc(OC)cc2)C(C(=O)c2ccc(OC)cc2)C1` (centres unmarked) [Compound 12e], in the assay with P388 cells, the IC50 is 0.98 µM. Also, in the assay on human tumors, the “Selective toxicity towards leukemia” value is listed as “Selective toxicity towards leukemia was observed” and the IC50 worked out at 10.2 µM.
